Assay results from patent publication US20200368198A1, “METHODS FOR INCREASING FERTILITY” (NEWSOUTH INNOVATIONS PTY LIMITED, priority 2017, published 2020).
“And” between values parts separate entries of the source, which are not always exact repeats. Equal entries are not always repeated.

How the values were obtained:
[1] = system: C57BL6 female mice; assay: Cumulus oocyte complex yield after PMSG superovulation, doxorubicin with or without NMN; type: in vivo; settings: per mouse, single dose doxorubicin 10 mg/kg i.p. and/or NMN 2 g/L drinking water, 2 months post doxorubicin
Procedure: To assess oocyte yield, and mice were hormonally stimulated to superovulated by intraperitoneal injection with 7.5 IU/mL of Pregnant Mare's Serum Gonadotropin (PMSG) (Folligon; Intervet, Boxmeer, Holland) to stimulate follicular growth. After 44-46 hours, ovaries were collected in HEPES-buffered minimum essential medium (aMEM; […] Sigma Aldrich, St. Louis, Mo.) and 100 μM IBMX (Sigma Aldrich). […] NMN was delivered through addition to drinking water at 2 g/L, for a final dose of approximately 165 mg/kg. Administration of NMN began one day prior to doxorubicin administration. […] Ovaries were then punctured to release MI oocytes. In a separate cohort of animals, the same experiment was repeated using animals treated with the platinum based chemotherapy drug cisplatin. In FIG. 6 and Table 1, numbers of cumulus oocyte complexes are listed.

[2] = system: oocytes; assay: Meiotic progression (GVBD, PBE) of harvested oocytes, doxorubicin with or without NMN; type: in vivo, mice; settings: doxorubicin and/or NMN
Text: Once harvested from ovaries, oocytes were stored in IBMX media to prevent progression into meiosis.

[3] = system: C57BL6 female mice; assay: Mating trial after doxorubicin with or without NMN co-treatment; type: in vivo; settings: for Number of mating rounds required to achieve pregnancy: the values are: cumulative % of females pregnant by round
Procedure: Following oocyte counting and analysis of oocyte meiotic progression, as well as a separate cohort of animals for histological ovarian analysis, a separate cohort of animals were treated as indicated, and mated with stud males of proven track record, to assess the ability of animals to deliver live births following chemotherapy treatment in the presence of absence of NMN co-treatment.

[4] = system: wild-type and NMNAT1-Tg female mice; assay: Oocyte yield following doxorubicin in wild-type or NMNAT1-Tg mice; type: in vivo; settings: 10 mg/kg i.p., two months later, PMSG, per mouse
Procedure: As in Example 2, 7 week-old female wild-type (“WT”) control or their littermates overexpressing NMNAT1 (“NMNAT1-Tg”) were treated with doxorubicin (10 mg/kg, i.p. injection). […] Two months later, animals were super-ovulated with PMSG, euthanased, and ovaries punctured to release MI oocytes, which were counted (FIG. 18 and Table 9).

[5] = system: C57BL6 females; assay: Reversal design: primordial follicle counts in ovarian histology sections; type: in vivo, mice; settings: doxorubicin 10 mg/kg i.p., NMN in drinking water started four weeks later for 4 weeks; per mouse
Text: Ovaries were dissected from freshly euthanased animals, and preserved in 10% neutral buffered formalin for 24 hr, followed by 70% ethanol, until embedding in paraffin blocks. Blocks were sectioned on a microtome and subjected to haematoxylin and eosin (H&E) staining. Primordial follicles were manually counted by a blinded investigator.
Next, we decided to investigate whether NMN treatment delivered some time following chemotherapy treatment could actively reverse chemotherapy induced infertility. […] Four weeks later, they received NMN in their drinking water, for another 4 weeks, prior to being euthanased for either oocyte studies or ovarian histological analysis. The rationale of this experimental design is to investigate whether NMN has the ability to induce regeneration of the ovary. According to the standard dogma of reproductive biology, mammals are born with a set number of follicles which are slowly released as oocytes over the course of a lifetime, with the ovaries incapable of regenerating new follicles.

[6] = target: NAMPT (Homo sapiens, UniProt P43490); settings: in vitro; cited from earlier work
[7] = target: T1, CD38 (Homo sapiens, UniProt P28907); settings: in vitro; cited from earlier work
T1 sequence (P28907 1-300): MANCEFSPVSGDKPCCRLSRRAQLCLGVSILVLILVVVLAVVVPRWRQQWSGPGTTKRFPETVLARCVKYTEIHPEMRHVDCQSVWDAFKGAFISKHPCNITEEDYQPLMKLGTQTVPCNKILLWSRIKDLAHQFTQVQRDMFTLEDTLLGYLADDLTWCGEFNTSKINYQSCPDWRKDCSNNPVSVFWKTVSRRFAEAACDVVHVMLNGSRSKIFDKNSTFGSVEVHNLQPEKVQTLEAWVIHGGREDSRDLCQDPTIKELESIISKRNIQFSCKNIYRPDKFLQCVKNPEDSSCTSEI

[8] = target: NADH:quinone oxidoreductase (NQ01) (Homo sapiens, UniProt P15559); settings: cited from earlier work
[9] = system: C57BL6 female mice; assay: Cumulus oocyte complex yield after PMSG, cisplatin with or without NMN; type: in vivo; settings: per mouse, single dose cisplatin 5 mg/kg i.p. and/or NMN 2 g/L drinking water, two months later
Procedure: To assess oocyte yield, and mice were hormonally stimulated to superovulated by intraperitoneal injection with 7.5 IU/mL of Pregnant Mare's Serum Gonadotropin (PMSG) (Folligon; Intervet, Boxmeer, Holland) to stimulate follicular growth. After 44-46 hours, ovaries were collected in HEPES-buffered minimum essential medium (aMEM; Gibco Life Technologies, Grand Island, N.Y.) supplemented with 50 µM of 3-isobuty-1-methylxanthine (IBMX) (Sigma aldrich, NSW, AU) (M2 medium) to maintain meitotic arrest at germinal vesicle stage. Cumulus oocyte complexes (COCs) were isolated from preovulatory follicles using a 27-gauge needle and collected using flame-pulled borosilicate Pasteur pipettes in M2 medium supplemented with 3 mg/ml bovine serum albumin (BSA; Sigma Aldrich, St. Louis, Mo.) and 100 μM IBMX (Sigma Aldrich). Cumulus oocyte complexes (COCs) were mechanically denuded of cumulus cells by pipetting, and the denuded oocytes were transferred to another dish containing a drop of fresh M2-medium plus IBMX on heat block with 37° C. with lid to protect oocytes from light. […]

[10] = system: oocytes; assay: Meiotic progression (GVBD, PBE) of harvested oocytes, cisplatin with or without NMN; type: in vivo, mice; settings: cisplatin and/or NMN
Procedure: Once harvested from ovaries, oocytes were stored in IBMX media to prevent progression into meiosis. Once released from IBMX, meiotic progression was assessed by the proportions of oocytes achieving germinal vesicle breakdown (GVBD) for meiosis I, and polar body extrusion (PBE) for meiosis II, with results shown in FIGS. 7 and 8 and Tables 2 and 3.
Again, as in Example 2 above, the oocytes which were harvested from these studies were allowed to progress down meiosis, in order to assess meiotic progression rates (FIGS. 16 and 17 and Table 7 and 8).

[11] = system: C57BL6 females; assay: Reversal design: oocyte yield, cisplatin followed by NMN 4 weeks later; type: in vivo, mice; settings: cisplatin 5 mg/kg i.p., per mouse
Procedure: To assess oocyte yield, and mice were hormonally stimulated to superovulated by intraperitoneal injection with 7.5 IU/mL of Pregnant Mare's Serum Gonadotropin (PMSG) (Folligon; Intervet, Boxmeer, Holland) to stimulate follicular growth. After 44-46 hours, ovaries were collected in HEPES-buffered minimum essential medium (aMEM; Gibco Life Technologies, Grand Island, N.Y.) supplemented with 50 µM of 3-isobuty-1-methylxanthine (IBMX) (Sigma aldrich, NSW, AU) (M2 medium) to maintain meitotic arrest at germinal vesicle stage. Cumulus oocyte complexes (COCs) were isolated from preovulatory follicles using a 27-gauge needle and collected using flame-pulled borosilicate Pasteur pipettes in M2 medium supplemented with 3 mg/ml bovine serum albumin (BSA; Sigma Aldrich, St. Louis, Mo.) and 100 μM IBMX (Sigma Aldrich). Cumulus oocyte complexes (COCs) were mechanically denuded of cumulus cells by pipetting, and the denuded oocytes were transferred to another dish containing a drop of fresh M2-medium plus IBMX on heat block with 37° C. with lid to protect oocytes from light.
Next, we decided to investigate whether NMN treatment delivered some time following chemotherapy treatment could actively reverse chemotherapy induced infertility. […]

NAMPT, sequence (P43490 whole entry, species assumed): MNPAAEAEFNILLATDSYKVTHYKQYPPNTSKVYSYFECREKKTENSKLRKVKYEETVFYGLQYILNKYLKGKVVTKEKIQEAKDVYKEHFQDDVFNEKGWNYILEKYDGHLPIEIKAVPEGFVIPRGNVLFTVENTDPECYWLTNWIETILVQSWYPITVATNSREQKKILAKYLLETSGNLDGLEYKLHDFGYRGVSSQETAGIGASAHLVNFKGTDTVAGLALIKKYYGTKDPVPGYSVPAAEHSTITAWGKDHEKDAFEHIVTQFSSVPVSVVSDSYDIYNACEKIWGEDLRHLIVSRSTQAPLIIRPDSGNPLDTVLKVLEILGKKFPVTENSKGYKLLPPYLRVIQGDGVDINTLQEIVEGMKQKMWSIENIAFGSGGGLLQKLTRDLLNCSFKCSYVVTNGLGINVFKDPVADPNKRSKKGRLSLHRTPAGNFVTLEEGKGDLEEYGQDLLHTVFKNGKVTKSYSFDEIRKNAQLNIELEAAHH
NADH:quinone oxidoreductase (NQ01), sequence (P15559 whole entry): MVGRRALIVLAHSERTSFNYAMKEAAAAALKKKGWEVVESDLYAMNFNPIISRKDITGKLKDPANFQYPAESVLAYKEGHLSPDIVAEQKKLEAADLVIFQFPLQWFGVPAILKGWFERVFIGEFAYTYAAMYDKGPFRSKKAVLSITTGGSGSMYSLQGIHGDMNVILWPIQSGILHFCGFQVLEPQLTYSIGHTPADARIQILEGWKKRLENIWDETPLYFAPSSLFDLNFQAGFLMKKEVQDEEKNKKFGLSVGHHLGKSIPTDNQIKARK

For `COc1cccc2c1C(=O)c1c(O)c3c(c(O)c1C2=O)C[C@@](O)(C(=O)CO)C[C@@H]3O[C@H]1C[C@H](N)[C@H](O)[C@H](C)O1` [Dox, doxorubicin], the “Numbers of cumulus oocyte complexes released from mice” value [1] was 1 and 8 and 9 and 3 and 6 and 7 and 5, the “Proportion of harvested oocytes achieving germinal vesicle breakdown” value ([2]; 1 h after release from IBMX) was 19 % of total and the “Proportion of harvested oocytes achieving germinal vesicle breakdown” value ([2]; 2 h after release from IBMX) was 92 % of total. For the same compound, the “Proportions of oocytes achieving polar body extrusion” value (from here on “Proportions”) ([2]; 14 hr following GVBD) was 21, the “Proportions” value ([2]; 16 hr following GVBD) was 52 and the “Proportions” value ([2]; 20 hr following GVBD) was 81. It also gave a Number of mating rounds required to achieve pregnancy ([3]; Round 0) of 0%, a Number of mating rounds required to achieve pregnancy ([3]; Round 1) of 60% and a Number of mating rounds required to achieve pregnancy ([3]; Round 2) of 90%. The Number of mating rounds required to achieve pregnancy ([3]; Round 3) was 90%, the “Number of live pups born per litter” value ([3]; per litter, female C57BL6 mice treated with doxorubicin and/or NMN, mated) was “strong reduction” and the “Oocyte yield following doxorubicin treatment” value ([4]; NMNAT1-Tg mice) was 13 (2×) and 12 and 11 and 15 and 10 (2×) and 18. The “Oocyte yield following doxorubicin treatment” value ([4]; wild-type mice) was 1 (2×) and 4 (2×) and 2 and 7 and 9 (2×) and 3 and the “Primordial follicle numbers in ovarian histology sections” value [5] was 34 and 50 and 49 and 41.
For `OC(CNc1ccccc1)Cn1c2ccc(Br)cc2c2cc(Br)ccc21` (stereo not shown) [P7C3], the “Effect on NAMPT activity” value [6] is given as “enhances activity of NAMPT in vitro”.
In the case of `O=c1cc(-c2ccc(O)cc2)oc2cc(O)cc(O)c12` [apigenin, 5,7-dihydroxy-2-(4-hydroxyphenyl)-4H-1-benzopyran-4-one], the “Inhibition of CD38 activity” value [7] is given as “inhibitors of CD38 activity in vitro”.
In the case of `CC1(C)CCC2=C(O1)c1ccccc1C(=O)C2=O` [β-lapachone, 3,4-dihydro-2,2-dimethyl-2H-napthol[1,2-b]pyran-5,6-dione], the “Effect on NQ01” value [8] is given as “activates the enzyme NADH:quinone oxidoreductase (NQ01)”.
In the case of `O=c1c(O)c(-c2ccc(O)c(O)c2)oc2cc(O)cc(O)c12` [quercetin, 2-(3,4-dihydroxyphenyl)-3,5,7-trihydroxy-4H-chromen-4-one], the “Inhibition of CD38 activity” value [7] is given as “inhibitors of CD38 activity in vitro”.
With `N.N.[Cl][Pt][Cl]` [cisplatin] the “Numbers of cumulus oocyte complexes released from mice” value [9] was “reduces oocyte yield and 10 and 5 and 6 and 0 and 4 and 9”, the “Proportion of harvested oocytes achieving germinal vesicle breakdown” value ([10]; 1 h after release from IBMX) was 43 % of total and the “Proportion of harvested oocytes achieving germinal vesicle breakdown” value ([10]; 2 h after release from IBMX) was 100 % of total. For the same compound, the “Proportion of harvested oocytes achieving polar body extrusion” value ([10]; 14 hr following completion of GVBD) was 40 % of total, the “Proportion of harvested oocytes achieving polar body extrusion” value ([10]; 16 hr following completion of GVBD) was 70 % of total and the “Proportion of harvested oocytes achieving polar body extrusion” value ([10]; 20 hr following completion of GVBD) was 85 % of total. For the same compound, the Oocyte yield [11] was 6 and 5 (2×) and 2 and 4.
